Results on 1 compound are retold here after PMC9824425, “Ammonium Uptake, Mediated by Ammonium Transporters, Mitigates Manganese Toxicity in Duckweed, Spirodela polyrhiza” (Plants, 2023).

What is called Km is the concentration of substrate that gives half-maximal velocity.

The test system of one assay is SpAMT1;1. The settings on record: NH4Cl 10-10,000 µM; pH 5.5 (MES/Tris); choline chloride 110 mM; membrane potential for the fit not told.
A further assay concerns SpAMT1;3. Conditions: NH4Cl 10-10,000 µM; pH 5.5 (MES/Tris); choline chloride 110 mM; membrane potential for the fit not told.

Turning to `N` [ammonium], the Michaelis-Menten constant (Km) with SpAMT1;1 came to 116 µM; in the assay on SpAMT1;3, 5400 µM.
